From ChEMBL document CHEMBL1275510, “Ceftibuten resistance and treatment failure of Neisseria gonorrhoeae infection” (Antimicrob Agents Chemother, 2008) come the findings set out here.

≈ marks a conversion by molar mass, not a printed value.

Data set [1] deals with Neisseria gonorrhoeae. As to the kind of experiment: Antimicrobial activity against penicillin-,ofloxacin- and tetracyclin-resistant Neisseria gonorrhoeae multiantigen sequence type 835 isolate 5 harboring penA gene by Etest. Type of data set: functional.
The test system of data set [2] is Neisseria gonorrhoeae. As to the kind of experiment: Antimicrobial activity against penicillin-,ofloxacin- and tetracyclin-resistant Neisseria gonorrhoeae multiantigen sequence type 835 isolate 9 harboring penA gene by Etest. The data set is classed as functional.
For data set [3], the system named is Neisseria gonorrhoeae. Description: Antimicrobial activity against penicillin-,ofloxacin- and tetracyclin-resistant Neisseria gonorrhoeae multiantigen sequence type 835 isolate 4 harboring penA gene by Etest. Type of data set: functional.
The nature of data set [4]: Half life in Neisseria gonorrhoeae infected patient at 400 mg, po. The data set is classed as ADME, organism-based. The conditions noted are these: human, in vivo.
Data set [5] is described as follows: Oral bioavailability in Neisseria gonorrhoeae infected patient at 400 mg, po. Type of data set: ADME, organism-based. The note with it: human, in vivo.
The subject of data set [6] is Neisseria gonorrhoeae. As to the kind of experiment: Antimicrobial activity against penicillin-,ofloxacin- and tetracyclin-resistant Neisseria gonorrhoeae multiantigen sequence type 2469 isolate 11 harboring penA gene by Etest. The data set is classed as functional.
Data set [7] can be described thus: Cmax in Neisseria gonorrhoeae infected patient at 400 mg, po. Type of data set: ADME, organism-based. Also noted: dose 400 mg, route oral. The conditions noted are these: human, in vivo.
Data set [8] deals with Neisseria gonorrhoeae. Description: Antimicrobial activity against penicillin-,ofloxacin- and tetracyclin-resistant Neisseria gonorrhoeae multiantigen sequence type 835 isolate 3 harboring penA gene by Etest. Type of data set: functional.
The subject of data set [9] is Neisseria gonorrhoeae. Description: Antimicrobial activity against penicillin-,ofloxacin- and tetracyclin-resistant Neisseria gonorrhoeae multiantigen sequence type 835 isolate 1 harboring penA gene by Etest. Type of data set: functional.
A further data set relates to Serum. As to the kind of experiment: Protein binding in Neisseria gonorrhoeae infected patient serum at 400 mg, po. The data set is classed as ADME, organism-based. The note with it: human, in vivo.
The subject of data set [10] is Neisseria gonorrhoeae. As to the kind of experiment: Antimicrobial activity against penicillin-,ofloxacin- and tetracyclin-resistant Neisseria gonorrhoeae multiantigen sequence type 835 isolate 8 harboring penA gene by Etest. The data set is classed as functional.
Data set [11] concerns Neisseria gonorrhoeae. Description: Antimicrobial activity against penicillin-,ofloxacin- and tetracyclin-resistant Neisseria gonorrhoeae multiantigen sequence type 835 isolate 2 harboring penA gene by Etest. The data set is classed as functional.
The test system of data set [12] is Neisseria gonorrhoeae. As to the kind of experiment: Antimicrobial activity against penicillin-,ofloxacin- and tetracyclin-resistant Neisseria gonorrhoeae multiantigen sequence type 835 isolate 7 harboring penA gene by Etest. The data set is classed as functional.
Data set [13] concerns Neisseria gonorrhoeae. As to the kind of experiment: Antimicrobial activity against penicillin-,ofloxacin- and tetracyclin-resistant Neisseria gonorrhoeae multiantigen sequence type 835 isolate 6 harboring penA gene by Etest. Type of data set: functional.
Data set [14] concerns Neisseria gonorrhoeae. As to the kind of experiment: Antimicrobial activity against penicillin-,ofloxacin- and tetracyclin-resistant Neisseria gonorrhoeae multiantigen sequence type 835 isolate 10 harboring penA gene by Etest. The data set is classed as functional.
Data set [15] concerns Neisseria gonorrhoeae. Description: Antimicrobial activity against penicillin-,ofloxacin- and tetracyclin-resistant Neisseria gonorrhoeae multiantigen sequence type 835 isolate 7 harboring penA gene by disk diffusion method. The data set is classed as functional. (In agar diffusion tests the substance spreads into inoculated agar from a disc or well.)
For data set [16], the system named is Neisseria gonorrhoeae. Description: Antimicrobial activity against penicillin-,ofloxacin- and tetracyclin-resistant Neisseria gonorrhoeae multiantigen sequence type 835 isolate 9 harboring penA gene by disk diffusion method. The data set is classed as functional.
Data set [17] concerns Neisseria gonorrhoeae. Description: Antimicrobial activity against penicillin-,ofloxacin- and tetracyclin-resistant Neisseria gonorrhoeae multiantigen sequence type 835 isolate 8 harboring penA gene by disk diffusion method. Type of data set: functional.
For data set [18], the system named is Neisseria gonorrhoeae. Description: Antimicrobial activity against penicillin-,ofloxacin- and tetracyclin-resistant Neisseria gonorrhoeae multiantigen sequence type 835 isolate 8 harboring penA gene by agar dilution method. Type of data set: functional. (In general: Agar dilution tests growth on a series of plates holding different concentrations.)
The test system of data set [19] is Neisseria gonorrhoeae. Description: Antimicrobial activity against penicillin-,ofloxacin- and tetracyclin-resistant Neisseria gonorrhoeae multiantigen sequence type 835 isolate 3 harboring penA gene by agar dilution method. The data set is classed as functional.
The subject of data set [20] is Neisseria gonorrhoeae. As to the kind of experiment: Antimicrobial activity against penicillin-,ofloxacin- and tetracyclin-resistant Neisseria gonorrhoeae multiantigen sequence type 835 isolate 10 harboring penA gene by agar dilution method. The data set is classed as functional.
For data set [21], the system named is Neisseria gonorrhoeae. Description: Antimicrobial activity against penicillin-,ofloxacin- and tetracyclin-resistant Neisseria gonorrhoeae multiantigen sequence type 835 isolate 9 harboring penA gene by agar dilution method. The data set is classed as functional.
The test system of data set [22] is Neisseria gonorrhoeae. Description: Antimicrobial activity against penicillin-,ofloxacin- and tetracyclin-resistant Neisseria gonorrhoeae multiantigen sequence type 835 isolate 2 harboring penA gene by agar dilution method. The data set is classed as functional.
Data set [23] relates to Neisseria gonorrhoeae. As to the kind of experiment: Antimicrobial activity against penicillin-,ofloxacin- and tetracyclin-resistant Neisseria gonorrhoeae multiantigen sequence type 835 isolate 10 harboring penA gene by disk diffusion method. The data set is classed as functional.
For data set [24], the system named is Neisseria gonorrhoeae. As to the kind of experiment: Antimicrobial activity against penicillin-,ofloxacin- and tetracyclin-resistant Neisseria gonorrhoeae multiantigen sequence type 835 isolate 4 harboring penA gene by agar dilution method. Type of data set: functional.
In data set [25] the test system is Neisseria gonorrhoeae. Description: Antimicrobial activity against penicillin-,ofloxacin- and tetracyclin resistant Neisseria gonorrhoeae by […]. The data set is classed as functional.
Data set [26] concerns Neisseria gonorrhoeae. As to the kind of experiment: Antimicrobial activity against penicillin-,ofloxacin- and tetracyclin-resistant Neisseria gonorrhoeae multiantigen sequence type 835 isolate 5 harboring penA gene by agar dilution method. The data set is classed as functional.
Data set [27] has as its system Neisseria gonorrhoeae. As to the kind of experiment: Antimicrobial activity against penicillin-,ofloxacin- and tetracyclin-resistant Neisseria gonorrhoeae multiantigen sequence type 835 isolate 7 harboring penA gene by agar dilution method. Type of data set: functional.
Data set [28] concerns Neisseria gonorrhoeae. As to the kind of experiment: Antimicrobial activity against penicillin-,ofloxacin- and tetracyclin resistant penA-negative Neisseria gonorrhoeae by […]. Type of data set: functional.
Data set [29] deals with Neisseria gonorrhoeae. As to the kind of experiment: Antimicrobial activity against penicillin-,ofloxacin- and tetracyclin-resistant Neisseria gonorrhoeae multiantigen sequence type 835 isolate 6 harboring penA gene by agar dilution method. Type of data set: functional.
Data set [30] has as its system Neisseria gonorrhoeae. Description: Antimicrobial activity against penicillin-,ofloxacin- and tetracyclin-resistant Neisseria gonorrhoeae multiantigen sequence type 835 isolate 6 harboring penA gene by disk diffusion method. The data set is classed as functional.
In data set [31] the test system is Neisseria gonorrhoeae. As to the kind of experiment: Antimicrobial activity against penicillin-,ofloxacin- and tetracyclin-resistant Neisseria gonorrhoeae multiantigen sequence type 835 isolate 1 harboring penA gene by disk diffusion method. The data set is classed as functional.
Data set [32] relates to Neisseria gonorrhoeae. As to the kind of experiment: Antimicrobial activity against penicillin-,ofloxacin- and tetracyclin-resistant Neisseria gonorrhoeae multiantigen sequence type 835 isolate 3 harboring penA gene by disk diffusion method. The data set is classed as functional.
For data set [33], the system named is Neisseria gonorrhoeae. As to the kind of experiment: Antimicrobial activity against penicillin-,ofloxacin- and tetracyclin-resistant Neisseria gonorrhoeae multiantigen sequence type 835 isolate 4 harboring penA gene by disk diffusion method. Type of data set: functional.
For data set [34], the system named is Neisseria gonorrhoeae. As to the kind of experiment: Antimicrobial activity against penicillin-,ofloxacin- and tetracyclin-resistant Neisseria gonorrhoeae multiantigen sequence type 835 isolate 1 harboring penA gene by agar dilution method. The data set is classed as functional.
Data set [35] deals with Neisseria gonorrhoeae. Description: Antimicrobial activity against penicillin-,ofloxacin- and tetracyclin-resistant Neisseria gonorrhoeae multiantigen sequence type 835 isolate 2 harboring penA gene by disk diffusion method. The data set is classed as functional.
The subject of data set [36] is Neisseria gonorrhoeae. As to the kind of experiment: Antimicrobial activity against penicillin-,ofloxacin- and tetracyclin-resistant Neisseria gonorrhoeae multiantigen sequence type 835 isolate 5 harboring penA gene by disk diffusion method. Type of data set: functional.
Data set [37] concerns Neisseria gonorrhoeae. Description: Antimicrobial activity against penicillin-,ofloxacin- and tetracyclin-resistant Neisseria gonorrhoeae multiantigen sequence type 2469 isolate 11 harboring penA gene by disk diffusion method. Type of data set: functional.
Data set [38] deals with Neisseria gonorrhoeae. Description: Antimicrobial activity against penicillin-,ofloxacin- and tetracyclin-resistant Neisseria gonorrhoeae multiantigen sequence type 2469 isolate 11 harboring penA gene by agar dilution method. Type of data set: functional.

Broadly, the MIC is the smallest concentration in the dilution series that meets the test's criterion for growth inhibition. A high value points to weaker potency. As usually defined, the half-life is how long it takes for the measured level to halve. In general, bioavailability refers to dose-corrected exposure relative to a reference, in per cent. A high value points to much systemic uptake. One may read the Cmax as the maximum level reached in the sampled fluid or tissue.

Consider `C=CC1=C(C(=O)O)N2C(=O)[C@@H](NC(=O)/C(=N\OCC(=O)O)c3csc(N)n3)[C@H]2SC1` [CEFIXIME], for which the MIC with Neisseria gonorrhoeae [1] amounted to 0.25 µg/mL (≈ 0.551 µM); in the data set with Neisseria gonorrhoeae [2], 0.125 µg/mL (≈ 0.276 µM); against Neisseria gonorrhoeae [3], 0.25 µg/mL (≈ 0.551 µM); in the data set on Neisseria gonorrhoeae [6], 0.125 µg/mL (≈ 0.276 µM); against Neisseria gonorrhoeae [8] it was 0.25 µg/mL (≈ 0.551 µM); against Neisseria gonorrhoeae [9], 0.25 µg/mL (≈ 0.551 µM). Moreover, the minimum inhibitory concentration (MIC) against Neisseria gonorrhoeae [10], with Neisseria gonorrhoeae [11], with Neisseria gonorrhoeae [12], against Neisseria gonorrhoeae [13] and with Neisseria gonorrhoeae [14] was 0.25 µg/mL (≈ 0.551 µM) in each case. The same compound had a half-life in [4] of 3.1 h. Also, the bioavailability in data set [5] stood at 50%. Moreover, in data set [7], the Cmax turned out to be 3000 ng/mL. The compound further yielded an Activity in the data set with Serum of 65%.
For `Nc1nc(/C(=C/CC(=O)O)C(=O)N[C@@H]2C(=O)N3C(C(=O)O)=CCS[C@H]23)cs1` [CEFTIBUTEN], the “diameter of the inhibition zone (DIZ)” value was 25 mm in the data set on Neisseria gonorrhoeae [15]; 27 mm in the data set on Neisseria gonorrhoeae [16]; 21 mm in the data set with Neisseria gonorrhoeae [17]; 19 mm with Neisseria gonorrhoeae [23]; “>=30 mm” with Neisseria gonorrhoeae [25]; 22 mm in the data set with Neisseria gonorrhoeae [30]. Also, the “diameter of the inhibition zone (DIZ)” value is 26 mm in the data set on Neisseria gonorrhoeae [31]; 25 mm with Neisseria gonorrhoeae [32]; 22 mm in the data set on Neisseria gonorrhoeae [33]; 24 mm in the data set with Neisseria gonorrhoeae [35]; 20 mm in the data set on Neisseria gonorrhoeae [36]; 23 mm in the data set on Neisseria gonorrhoeae [37]. Besides, the MIC in the data set with Neisseria gonorrhoeae [18], with Neisseria gonorrhoeae [19], with Neisseria gonorrhoeae [20], with Neisseria gonorrhoeae [21], with Neisseria gonorrhoeae [22] and in the data set on Neisseria gonorrhoeae [24] was 8 µg/mL (≈ 19.5 µM) throughout. For the same compound, the minimum inhibitory concentration (MIC) with Neisseria gonorrhoeae [26] is 8 µg/mL (≈ 19.5 µM); in the data set with Neisseria gonorrhoeae [27] it was 8 µg/mL (≈ 19.5 µM); in the data set with Neisseria gonorrhoeae [28], at most 1 µg/mL; in the data set on Neisseria gonorrhoeae [29], 8 µg/mL (≈ 19.5 µM); in the data set with Neisseria gonorrhoeae [34], 8 µg/mL (≈ 19.5 µM); with Neisseria gonorrhoeae [38] it was 8 µg/mL (≈ 19.5 µM). In data set [4], this compound gave a half-life of 2.4 h. Besides, the bioavailability in [5] was 80%. The highest level in data set [7] (Cmax) was 15000 ng/mL. The Activity in the data set on Serum is 65%.
In the case of `CO/N=C(\C(=O)N[C@@H]1C(=O)N2C(C(=O)O)=C(CSc3nc(=O)c(O)nn3C)CS[C@H]12)c1csc(N)n1` [CEFTRIAXONE], the MIC against Neisseria gonorrhoeae [1], against Neisseria gonorrhoeae [2], with Neisseria gonorrhoeae [3], against Neisseria gonorrhoeae [6], in the data set with Neisseria gonorrhoeae [8] and with Neisseria gonorrhoeae [9] was 0.064 µg/mL (≈ 0.115 µM) in each case. In addition, the MIC against Neisseria gonorrhoeae [10] is 0.125 µg/mL (≈ 0.225 µM); in the data set on Neisseria gonorrhoeae [11], 0.064 µg/mL (≈ 0.115 µM); against Neisseria gonorrhoeae [12], 0.064 µg/mL (≈ 0.115 µM); against Neisseria gonorrhoeae [13] it was 0.064 µg/mL (≈ 0.115 µM); in the data set on Neisseria gonorrhoeae [14], 0.064 µg/mL (≈ 0.115 µM).
Regarding `CN[C@@H]1[C@H](O)[C@H](NC)[C@H]2O[C@@]3(O)C(=O)C[C@@H](C)O[C@H]3O[C@@H]2[C@H]1O` [SPECTINOMYCIN], the MIC stood at 8 µg/mL (≈ 24.1 µM) with Neisseria gonorrhoeae [1]; 8 µg/mL (≈ 24.1 µM) in the data set with Neisseria gonorrhoeae [2]; 8 µg/mL (≈ 24.1 µM) in the data set on Neisseria gonorrhoeae [3]; 8 µg/mL (≈ 24.1 µM) against Neisseria gonorrhoeae [6]; 16 µg/mL (≈ 48.1 µM) against Neisseria gonorrhoeae [8]; 8 µg/mL (≈ 24.1 µM) in the data set on Neisseria gonorrhoeae [9]. The MIC in the data set with Neisseria gonorrhoeae [10] was determined as 8 µg/mL (≈ 24.1 µM); in the data set with Neisseria gonorrhoeae [11] it was 16 µg/mL (≈ 48.1 µM); against Neisseria gonorrhoeae [12] it was 8 µg/mL (≈ 24.1 µM); against Neisseria gonorrhoeae [13], 8 µg/mL (≈ 24.1 µM); in the data set with Neisseria gonorrhoeae [14] it was 8 µg/mL (≈ 24.1 µM).
